According to patent US6768007B2, “Substituted 3′,4′-di-O-camphanoyl-(+)-cis-khellactone analogs, compositions thereof, and methods for using thereof” (Panacos Pharmaceuticals, Inc., priority 2001, dated 2004):

Assays:
[1] = test system: HIV-1 (IIIB isolate); test: Anti-HIV activity in H9 lymphocytes (p24 antigen ELISA); format: cell-based; conditions: H-9 lymphocytes; for Anti-HIV Activity EC50: HIV-1 IIIB, p24 ELISA, day 5, average of at least two experiments; for Therapeutic Index (TI = IC50/EC50): ratio of IC50 to EC50; for anti-viral activity (in words): summary of Table 1
Experimental: (§1) The biological evaluation of HIV-1 inhibition was carried out according to established protocols, (Kashiwada, Y., et al., J. Med. Chem. 39:1016-1017 (1996); Hashimoto, F., et al., Bioorg. & Med. Chem. 5:2133-2143 (1997)). The T cell line, H9, was maintained in continuous culture log-phase growth in complete medium (RPMI 1640 with 10% fetal calf serum supplemented with L-glutamine at 5% CO2 and 37° C.). Test samples were first dissolved in dimethyl sulfoxide at a concentration of 10 mg/ml to generate master stocks with dilutions made into tissue culture media to generate working stocks. The following drug concentrations were used routinely for screening: 50, 5, and 0.5 μg/mL. For agents found to be active, additional dilutions were prepared for subsequent testing so that an accurate EC50 value (defined below) could be determined. As the test samples were being prepared, an aliquot of the H9 cell line was infected with HIV-1 (IIIB isolate) while a second aliquot was mock-infected with complete medium. […] An amount of virus equal to approximately 6.25×10^4 TCID50 was added to the first aliquot of 3.5×10^6H9 cells. The second aliquot received tissue culture medium only, and these mock-infected cells were used for toxicity determinations (IC50 defined below). After a 4 h incubation at 37° C. and 5% CO2, both cell populations were washed three times with fresh medium and then added to the appropriate wells of a 96-well plate containing various concentrations of the test drug or tissue culture medium (positive infected control/negative drug control). In addition, AZT was assayed during each experiment as a positive drug control. The plates were incubated at 37° C. and 5% CO2 for 5 days. Cell-free culture supernatants were collected on Day 5 for use in a p24 antigen-capture ELISA assay to determine virus replication. p24 is the core protein of HIV and therefore is an indirect measure of the amount of virus present in the culture supernatants. Toxicity was determined using a viable dye method (XTT) on mock-infected H9 cells that were treated with test sample, AZT or no drug. If a test sample suppressed viral replication and was toxic to less than 50% of the cells, its effects were reported in the following terms: IC50, the concentration of test sample which was toxic to 50% of the mock-infected H9 cells; EC50, the concentration of the test sample which was able to suppress HIV replication by 50%; and Therapeutic Index (TI), the ratio of IC50 to EC50.
(§2) Compounds of the present invention were assayed for anti-HIV activity according to the following assay procedures. The T cell line, H9, and the promonocytic cell line, U937, were maintained separately in continuous culture with complete medium (RPMI 1640 with 10% fetal calf serum) at 5% CO2 and 37° C. The cell lines were used in experiments only when in the logarithmic phase of growth, whereas uninfected peripheral blood mononuclear cells (PBMCs) were first stimulated with PHA (1 μg/mL) for three days. All cell targets were incubated with HIV-1 (IIIB isolate, 1×10^6 TCID50/mL) for one hour at 37° C. and 5% CO2. The cell lines and PBMCs were washed thoroughly to remove unadsorbed virions and resuspended at 4×10^5 cells/mL in complete medium or complete medium with 10% v/v interleukin 2 (IL-2), respectively. […] aliquots were placed into wells of 96-well tissue culture plates containing an equal volume of test compounds (diluted in the appropriate culture medium). The toxicity of each compound was assessed by determining the viability of compound-exposed uninfected cells after five days at 37° C. and 5% CO2. A p24 antigen ELISA assay was used to determine the level of virus released in the medium of the HIV-infected cultures. The p24 antigen assay used a HIV-1 anti-p24 specific monoclonal antibody as the capture antibody coated onto 96-well plates. […]

[2] = test system: mock-infected H9 cells; test: Cytotoxicity in mock-infected (uninfected) H9 cells; format: cell-based
Experimental: as §1, §2

| SMILES | Anti-HIV Activity EC50 [1] [mg/L] | Therapeutic Index (TI = IC50/EC50) [1] | Cytotoxicity IC50 [2] [mg/L] | anti-viral activity (in words) [1] |
| --- | --- | --- | --- | --- |
| CC1(C)Oc2c(CBr)cc3ccc(=O)oc3c2[C@@H](OC(=O)[C@@]23CCC(C)(C(=O)O2)C3(C)C)[C@H]1OC(=O)[C@@]12CCC(C)(C(=O)O1)C2(C)C (relative stereo) [Compound 4, (3′R,4′R)-3′,4′-Di-O-(S)-(−)-camphanoyl-6-bromomethyl-(+)-cis-khellactone] | 0.0176 | 113 | 1.99 |  |
| Cc1cc(=O)oc2c3c(c(C(Br)Br)cc12)OC(C)(C)[C@H](OC(=O)[C@@]12CCC(C)(C(=O)O1)C2(C)C)[C@@H]3OC(=O)[C@@]12CCC(C)(C(=O)O1)C2(C)C (relative stereo) [Compound 5, (3′R,4′R)-3′,4′-Di-O-(S)-(−)-camphanoyl-6-dibromomethyl-4-methyl-(+)-cis-khellactone] | 0.0215 | 81.8 | 1.76 |  |
| Cc1cc(=O)oc2c3c(c(CBr)cc12)OC(C)(C)[C@H](OC(=O)[C@@]12CC[C@@](C)(C(=O)O1)C2(C)C)[C@@H]3OC(=O)[C@@]12CC[C@@](C)(C(=O)O1)C2(C)C (relative stereo) [Compound 6, (3′R,4′R)-3′,4′-Di-O-(S)-(−)-camphanoyl-6-bromomethyl-4-methyl-(+)-cis-khellactone] | 0.025 | 1,000 | 25.00 |  |
| CC(=O)OCc1cc2ccc3c(c2oc1=O)[C@@H](OC(=O)[C@@]12CCC(C)(C(=O)O1)C2(C)C)[C@@H](OC(=O)[C@@]12CCC(C)(C(=O)O1)C2(C)C)C(C)(C)O3 (relative stereo) [Compound 7, (3′R,4′R)-3′,4′-Di-O-(S)-(−)-camphanoyl-3-acetoxymethyl-(+)-cis-khellactone] | 0.00103 | 3,243 | 3.34 | most potent |
| CC(=O)OCc1c(C)c2ccc3c(c2oc1=O)[C@@H](OC(=O)[C@@]12CC[C@@](C)(C(=O)O1)C2(C)C)[C@@H](OC(=O)[C@@]12CC[C@@](C)(C(=O)O1)C2(C)C)C(C)(C)O3 (relative stereo) [Compound 8, (3′R,4′R)-3′,4′-Di-O-(S)-(−)-camphanoyl-3-acetoxymethyl-4-methyl-(+)-cis-khellactone] | 0.00012 | 157,000 | 18.80 | most potent |

More lines, main results first:

| Anti-HIV Activity EC50 [1] [mg/L] | SMILES | Therapeutic Index (TI = IC50/EC50) [1] | Cytotoxicity IC50 [2] [mg/L] | anti-viral activity (in words) [1] |
| --- | --- | --- | --- | --- |
| 0.0854 | CC1(C)Oc2ccc3cc(CBr)c(=O)oc3c2[C@@H](OC(=O)[C@@]23CC[C@@](C)(C(=O)O2)C3(C)C)[C@H]1OC(=O)[C@@]12CC[C@@](C)(C(=O)O1)C2(C)C (relative stereo) [Compound 1, (3′R,4′R)-3′,4′-Di-O-(S)-(−)-camphanoyl-3-bromomethyl-(+)-cis-khellactone] | 40 | 3.38 |  |
| 0.000119 | CC1(C)Oc2ccc3cc(C(Br)Br)c(=O)oc3c2[C@@H](OC(=O)[C@@]23CCC(C)(C(=O)O2)C3(C)C)[C@H]1OC(=O)[C@@]12CCC(C)(C(=O)O1)C2(C)C (relative stereo) [Compound 2, (3′R,4′R)-3′,4′-Di-O-(S)-(−)-camphanoyl-3-dibromomethyl-(+)-cis-khellactone] | 26,890 | 3.20 | most potent |
| 0.000192 | Cc1c(CBr)c(=O)oc2c3c(ccc12)OC(C)(C)[C@H](OC(=O)[C@@]12CC[C@@](C)(C(=O)O1)C2(C)C)[C@@H]3OC(=O)[C@@]12CC[C@@](C)(C(=O)O1)C2(C)C (relative stereo) [Compound 3, (3′R,4′R)-3′,4′-Di-O-(S)-(−)-camphanoyl-3-bromomethyl-4-methyl-(+)-cis-khellactone] | 101,000 | 19.4 | most potent |
